Where two headings read alike, the source gives them in different places.
How the values were obtained:
[1] = Stability in human plasma; format: in vitro ADME; conditions: 37° C.
Procedure: 1 mg of the test compound was solved in 0.5 ml acetonitrile/dimethylsulfoxide 1:1. For complete dissolution the HPLC vial was shaken and sonicated. While vortexing 20 μl of this solution were added to 1 ml 37° C. warm plasma. After 0.17, 0.5, 1, 1.5, 2 and 4 hours the enzymatic reaction was stopped by adding 100 μl of the compound plasma solution to a vial containing 300 μl acetonitrile/buffer pH3 (80:20) at RT. The mixture was centrifuged at 5000 rpm for 10 minutes. The supernatant was analyzed by HPLC to determine the amount of the test compound and up to two byproducts. t(0) values result from a processed sample immediately taken after vortexing with plasma at RT. The peak areas (in percentage) were used for quantification.

P-gp = test: Cytotoxicity in vitro against NCI-H1975 transfected with P-gp; format: cell-based; conditions: human
Description: (§1) The cytotoxic activity of 7-Ethyl camptothecin is not negatively affected when tumor cells NCI-H1975 was transfected with drug transporters p-Glycoprotein (P-gp) and breast cancer resistant protein (BCRP) which is in strong contrast to SN38.

P-gp (ABCB1) = P-gp (ABCB1) (Homo sapiens, UniProt P08183); test: in vitro
Sequence of P-gp (ABCB1) (P08183 whole entry): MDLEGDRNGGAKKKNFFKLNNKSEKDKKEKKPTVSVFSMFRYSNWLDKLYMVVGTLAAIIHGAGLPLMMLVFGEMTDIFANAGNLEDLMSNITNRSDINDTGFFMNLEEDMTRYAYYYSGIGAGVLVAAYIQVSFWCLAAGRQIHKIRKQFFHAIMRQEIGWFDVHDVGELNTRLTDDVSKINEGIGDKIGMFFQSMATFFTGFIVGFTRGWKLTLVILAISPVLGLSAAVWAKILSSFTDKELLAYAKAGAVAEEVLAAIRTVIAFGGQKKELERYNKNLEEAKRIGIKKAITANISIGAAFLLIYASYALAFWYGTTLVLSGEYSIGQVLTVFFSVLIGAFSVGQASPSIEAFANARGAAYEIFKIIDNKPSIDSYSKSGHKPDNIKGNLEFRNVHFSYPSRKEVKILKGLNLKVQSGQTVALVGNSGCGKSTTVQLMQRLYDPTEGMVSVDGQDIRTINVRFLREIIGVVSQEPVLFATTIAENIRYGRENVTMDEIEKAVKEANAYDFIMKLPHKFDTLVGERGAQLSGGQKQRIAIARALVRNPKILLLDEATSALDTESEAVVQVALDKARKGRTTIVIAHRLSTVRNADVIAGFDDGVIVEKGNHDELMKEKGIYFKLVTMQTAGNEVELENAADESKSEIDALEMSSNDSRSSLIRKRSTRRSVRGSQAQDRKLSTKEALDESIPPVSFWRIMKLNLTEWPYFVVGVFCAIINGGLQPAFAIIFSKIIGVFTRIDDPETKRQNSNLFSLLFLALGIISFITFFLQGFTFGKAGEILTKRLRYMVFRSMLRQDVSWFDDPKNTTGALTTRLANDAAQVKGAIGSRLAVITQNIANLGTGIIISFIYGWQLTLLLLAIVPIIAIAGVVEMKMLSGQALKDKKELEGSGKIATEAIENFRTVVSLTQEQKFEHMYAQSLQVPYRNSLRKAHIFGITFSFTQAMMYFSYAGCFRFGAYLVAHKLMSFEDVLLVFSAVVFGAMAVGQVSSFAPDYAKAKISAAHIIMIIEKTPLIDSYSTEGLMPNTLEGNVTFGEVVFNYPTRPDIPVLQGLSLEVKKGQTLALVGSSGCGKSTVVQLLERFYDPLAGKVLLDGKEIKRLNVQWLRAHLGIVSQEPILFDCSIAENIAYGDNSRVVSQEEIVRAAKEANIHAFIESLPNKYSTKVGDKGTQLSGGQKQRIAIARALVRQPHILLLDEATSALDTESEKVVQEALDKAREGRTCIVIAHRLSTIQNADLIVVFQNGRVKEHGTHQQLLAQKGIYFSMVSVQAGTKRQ
Procedure: Many tumor cells express transporter proteins for drugs, and this frequently accompanies the development of resistance towards cytostatics.
The substrate properties of a substance for P-gp (ABCB1) were determined by means of a flux assay using LLC-PK1 cells which overexpress P-gp (L-MDR1 cells) [A. H. Schinkel et al., J. Clin. Invest. 96. 1698-1705 (1995)]. For this purpose. the LLC-PK1 cells or L-MDR1 cells were cultured on 96-well filter plates for 3-4 days. For determination of the permeation, the respective test substance, alone or in the presence of an inhibitor (such as ivermectin or verapamil, for example), was applied in a HEPES buffer to the cells either apically (A) or basally (B) and incubated for 2 hours. After ([…] and after 2 hours, samples were taken from the cis and trans compartments. The samples were separated by HPLC using reverse phase columns. The HPLC system was coupled via a Turbo Ion Spray Interface to a Triple Quadropol mass spectrometer API 3000 (Applied Biosystems Applera, Darmstadt, Germany). The permeability was evaluated on the basis of a Papp value, which was calculated using the formula published by Schwab et al. [D. Schwab et al. . . . J. Med. Chem. 46, 1716-1725 (2003)]. A substance was classified as P-gp substrate when the efflux ratio of Papp (B-A) to Papp (A-B) was >2.

[2] = Pharmacokinetics: tumor and plasma levels in 786-O tumor bearing mice; format: in vivo, NMRI nu/nu mice; conditions: for Tumor/Plasma enrichment factor (ratio/ratio): relative to direct administration of 7-ethyl camptothecin
Procedure: (§2) Tumor and plasma samples were collected at different time points and the levels of intact conjugate and of the toxophore 7-ethyl-camptothecin cleaved from the conjugate were determined.
For comparison, 1 mg/kg of 7-ethyl camptothecin was dissolved in a mixture of 5% aqueous dextrose/solutol/DMSO 85/10/5 and administered iv to female. 786-O tumor bearing NMRI nu/nu mice. Again tumor and plasma samples were collected at different time points and the levels of 7-ethyl-camptothecin were determined.
as §2

BCRP = test: Cytotoxicity in vitro against NCI-H1975 transfected with BCRP; format: cell-based; conditions: human
Description: as §1

[3] = Caco-2 flux assay for cellular permeability; format: in vitro ADME; conditions: human
Procedure: (§3) The cell permeability of a substance can be investigated by means of in vitro testing in a flux assay using Caco-2 cells [M. D. Troutman and D. R. Thakker, Pharm. Res. 20 (8), 1210-1224 (2003)]. For this purpose. the cells were cultured for 15-16 days on 24-well filter plates. […] The samples were separated by HPLC (Agilent 1200. Böblingen. Germany) using reverse phase columns. […] 1716-1725 (2003)]. A substance was classified as actively transported when the ratio of Papp (B-A) to Papp (A-B) (efflux ratio) was >2 or <0.5.

NCI-H1975 = test: Cytotoxicity in vitro against NCI-H1975; format: cell-based
Description: as §1

αvβ3 receptor = target: T1, αvβ3 receptor (Homo sapiens, UniProt P05106+P06756); test: αvβ3 binding test (echistatin SPA)
T1 construct: αvβ3 from human A375 cells was purified analogously to a procedure described by Wong et al; endogenous in cells; host or cells: human A375 cells (receptor purified from the cells)
T1 sequence (P06756 31-889 limits assumed): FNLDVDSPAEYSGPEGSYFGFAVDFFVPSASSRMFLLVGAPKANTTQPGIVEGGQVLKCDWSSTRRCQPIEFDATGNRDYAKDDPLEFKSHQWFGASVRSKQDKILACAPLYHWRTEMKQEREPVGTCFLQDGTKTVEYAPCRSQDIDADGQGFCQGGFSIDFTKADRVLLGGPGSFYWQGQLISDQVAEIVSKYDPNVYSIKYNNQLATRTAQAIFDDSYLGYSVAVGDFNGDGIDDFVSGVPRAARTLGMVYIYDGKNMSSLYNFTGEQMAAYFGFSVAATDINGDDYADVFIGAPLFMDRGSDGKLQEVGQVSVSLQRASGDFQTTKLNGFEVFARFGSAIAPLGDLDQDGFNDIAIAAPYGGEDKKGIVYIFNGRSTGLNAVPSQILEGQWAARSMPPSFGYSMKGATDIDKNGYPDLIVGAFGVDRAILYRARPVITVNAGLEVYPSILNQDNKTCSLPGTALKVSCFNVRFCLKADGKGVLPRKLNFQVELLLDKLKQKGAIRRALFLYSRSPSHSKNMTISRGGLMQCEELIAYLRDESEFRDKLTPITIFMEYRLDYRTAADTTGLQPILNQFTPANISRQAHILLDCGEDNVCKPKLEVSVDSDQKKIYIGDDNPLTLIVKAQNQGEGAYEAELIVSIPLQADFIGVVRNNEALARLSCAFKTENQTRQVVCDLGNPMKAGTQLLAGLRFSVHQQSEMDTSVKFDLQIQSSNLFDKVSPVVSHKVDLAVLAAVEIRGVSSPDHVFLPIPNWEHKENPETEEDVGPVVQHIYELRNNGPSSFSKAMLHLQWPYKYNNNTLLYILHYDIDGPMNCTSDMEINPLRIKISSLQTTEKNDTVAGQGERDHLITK
T1 sequence (P06756 891-1048 partner limits assumed): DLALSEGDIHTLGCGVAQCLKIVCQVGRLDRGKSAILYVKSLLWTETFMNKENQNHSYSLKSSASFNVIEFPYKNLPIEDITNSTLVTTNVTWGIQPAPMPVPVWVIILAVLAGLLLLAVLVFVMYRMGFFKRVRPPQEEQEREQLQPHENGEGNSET
T1 sequence (P05106 27-788): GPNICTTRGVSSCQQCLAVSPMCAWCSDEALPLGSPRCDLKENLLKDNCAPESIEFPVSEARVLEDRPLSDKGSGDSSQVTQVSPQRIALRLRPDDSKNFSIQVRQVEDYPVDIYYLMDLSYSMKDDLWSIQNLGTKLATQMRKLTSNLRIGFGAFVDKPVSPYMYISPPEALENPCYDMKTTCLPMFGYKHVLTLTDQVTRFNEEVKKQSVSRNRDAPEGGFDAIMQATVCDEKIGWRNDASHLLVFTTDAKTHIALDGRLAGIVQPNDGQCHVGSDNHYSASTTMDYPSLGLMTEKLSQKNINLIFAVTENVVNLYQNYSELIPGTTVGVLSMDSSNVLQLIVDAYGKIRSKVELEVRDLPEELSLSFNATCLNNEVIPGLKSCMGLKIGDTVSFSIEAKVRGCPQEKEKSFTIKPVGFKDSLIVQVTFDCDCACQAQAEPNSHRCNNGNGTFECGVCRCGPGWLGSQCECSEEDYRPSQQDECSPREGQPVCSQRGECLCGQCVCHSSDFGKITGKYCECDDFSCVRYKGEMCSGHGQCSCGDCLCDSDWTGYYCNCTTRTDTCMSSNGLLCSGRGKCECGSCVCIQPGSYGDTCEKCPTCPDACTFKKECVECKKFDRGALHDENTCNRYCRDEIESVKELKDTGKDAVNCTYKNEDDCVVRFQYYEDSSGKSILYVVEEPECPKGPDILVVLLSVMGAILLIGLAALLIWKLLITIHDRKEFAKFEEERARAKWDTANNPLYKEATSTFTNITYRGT
Procedure: αvβ3 from human A375 cells was purified analogously to a procedure described by Wong et al. in Molecular Pharmacology 50, 529-537 (1996). In each case, 10 μL of αvβ3 (5 ng) in TBS PH 7.6, 2 mM CaCl2. 1 mM MgCl2. 1% n-octylglucopyranoside (Sigma): 10 μL of test substance in TBS pH 7.6. 0.1% DMSO and 45 μL of TBS pH 7.6. 2 mM CaCl2, 1 mM MgCl2, 1 mM MnCl2 were incubated at room temperature for 1 h. In each case, 25 μL of WGA SPA beads (Amersham, 4 mg/ml) and 10 μL of echistatin (0.1 μCi, Amersham, chloramine-T labelled) were then added. After 16 h at room temperature, the samples were measured in a scintillation measuring apparatus (Wallac 1450).

HT29 cell line = test: Cytotoxicity in vitro (MTT) in the presence and absence of elastase, HT29; format: cell-based; conditions: 72 h
Procedure: (§4) Cultivation of cells was performed according to standard procedures with the media recommended by the provider. The cells in a total volume of 100 μL were seeded in a 96-well plate with white bottom (#3610). After a 24 h incubation period at 37° C. and 5% CO2, the medium was changed by adding 90 μL fresh medium. The treatment starts by adding the test compound to the cells in 10 μl of culture medium. Concentrations from 10^−5 M to 10^−13 M in triplicates were chosen followed by an incubation at 37° C. and 5% carbon dioxide. One set of samples were only treated with the test compound whereas to an otherwise identically treated second set of samples also 10 nM elastase was pipetted. After 72 h. the proliferation is detected using the MTT assay (ATCC). At the end of the incubation period the MTT reagent is added to all samples for 4 h, followed by lysis of the cells overnight by addition of the detergent. The dye formed was detected at 570 nm. The proliferation of cells which were not treated with test substance but were otherwise identically treated was defined as the 100% value. (FIG. 1 and table 4).

786-O cell line = test: Cytotoxicity in vitro (MTT) in the presence and absence of elastase, 786-O; format: cell-based; conditions: 72 h, MTT
Procedure: as §4

NCI-H1975-P-gp = test: Cytotoxicity in vitro against NCI-H1975 transfected with P-gp; format: cell-based
Description: as §1

NCI-H1975-BCRP = test: Cytotoxicity in vitro against NCI-H1975 transfected with BCRP; format: cell-based
Description: as §1

Caco-2 cells = test: Caco-2 flux assay for cellular permeability; format: in vitro ADME
Procedure: as §3

[4] = Caco-2, Papp (B-A) to Papp (A-B)

## CC[C@@]1(O)C(=O)OCc2c1cc1n(c2=O)Cc2cc3ccccc3nc2-1 [camptothecin]
[1]; 4 hours
  extent of degradation in human plasma: about 50%

## CCc1c2c(nc3ccccc13)-c1cc3c(c(=O)n1C2)COC(=O)[C@]3(O)CC [7-Ethyl-camptothecin, (4S)-4,11-diethyl-4-hydroxy-1H-pyrano[3′,4′:6,7]indolizino[1,2-b]quinoline-3,14(4 H,12H)-dione]
P-gp
  IC50: 0.034 µM
P-gp (ABCB1); pig, LLC-PK1
  Papp A→B at 2 h: 19.6 ×10⁻⁶ cm/s
  efflux ratio at 2 h: 0.6
[2]; mouse, tumor and plasma, 1 mg/kg, iv, female 786-O tumor bearing NMRI nu/nu mice, read-out: Tumor/Plasma ratio of 7-ethyl camptothecin
  Kp: 0.6
[2]
  Tumor/Plasma enrichment factor (ratio/ratio): 1
BCRP
  IC50: 0.027 µM
[3]; Caco-2, 2 hours incubation
  Papp A→B at 2 h: 17.1 ×10⁻⁶ cm/s
[3]; [4]
  efflux ratio at 2 h: 1
NCI-H1975; Homo sapiens, NCI-H1975
  IC50: 0.019 µM
[1]
  stable in human plasma for: at least 4 hours

## CCCNC(=O)Nc1cccc(S(=O)(=O)Nc2cccc([C@H](CC(=O)[O-])NC(=O)Nc3ccc(NC(=O)NCCOCCOCCOCCC(=O)N[C@@H](CC(=O)[O-])C(=O)N4CCC[C@H]4C(=O)N[C@H](C(=O)O[C@]4(CC)C(=O)OCc5c4cc4n(c5=O)Cc5c-4nc4ccccc4c5CC)C(C)C)cc3)c2)c1.[Na+].[Na+] [Example 2, disodium (4S)-4,11-diethyl-3,14-dioxo-3,4,12,14-tetrahydro-1H-pyrano[3′,4′: 6,7]indolizino [1,2-b]quinolin-4-yl 1-{(2S)-2-(carboxylatomethyl)-17-[4-({[(1S)-2-carboxylato-1-{3-[({3-[(propyl-carbamoyl)amino]phenyl}sulfonyl)amino]phenyl}ethyl]carbamoyl}amino)anilino]-4,17-dioxo-7,10,13-trioxa-3,16-diazaheptadecan-1-oyl}-L-prolyl-L-valinate]
αvβ3 receptor
  IC50: 0.7 µM
HT29 cell line; 10 nM elastase, read-out: HT29 cell line IC50 w elastase
  IC50: 0.032 µM
HT29 cell line; without elastase, read-out: HT29 cell line IC50 w/o elastase
  IC50: > 0.5 µM
[2]
  Tumor/Plasma enrichment factor (ratio/ratio): 2
786-O cell line; 10 nM elastase, read-out: 786-O cell line IC50 w elastase
  IC50: 0.00017 µM
786-O cell line; without elastase, read-out: 786-O cell line IC50 w/o elastase
  IC50: 0.268 µM

## CCc1c2c(nc3ccc(O)cc13)-c1cc3c(c(=O)n1C2)COC(=O)[C@]3(O)CC [SN38]
NCI-H1975-P-gp
  IC50: 0.141 µM
P-gp (ABCB1); L-MDR1 cells (LLC-PK1 overexpressing P-gp)
  permeability Papp A->B: 1 ×10⁻⁶ cm/s
P-gp (ABCB1); L-MDR1 cells, Papp (B-A) to Papp (A-B)
  efflux ratio: 16
NCI-H1975-BCRP
  IC50: 0.512 µM
Caco-2 cells; Caco-2, 2 hours incubation
  permeability Papp A->B: 0.8 ×10⁻⁶ cm/s
Caco-2 cells; [4]
  efflux ratio: 36
Caco-2 cells; Caco-2, new data for SN38
  efflux ratio: 9
  permeability Papp A->B: 2 ×10⁻⁶ cm/s
NCI-H1975
  IC50: 0.045 µM

Source: patent US20240325553A1, “CYTOSTATIC CONJUGATES WITH INTEGRIN LIGANDS” (priority 2018, published 2024)
